Measured values: article PMC7782793, “Hydroxamic acid-modified peptide microarrays for profiling isozyme-selective interactions and inhibition of histone deacetylases” (Nature Communications, 2021)
“And” between values parts separate entries of the source, which are not always exact repeats. Identical values can stand only once. Marks after values point to notes of the source that are not given here. Non-standard residues stand in square brackets, D forms with d. Residues, ends and D or L forms follow the SMILES beside them. *: point of attachment. Asu = N[C@@H](CCCCCC(=O)O)C(=O)O; NHOH = ON*

Tests used:
HDAC1 [1] = target: T1, HDAC1 (Homo sapiens, UniProt Q13547); experiment: Recombinant HDAC µSPOT microarray binding assay;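 further: slides with spotted peptides incubated with six HDAC concentrations in HEPES buffer pH 7.4, spot intensities fitted by four-parameter logistic, EC50 as enzyme concentration giving half-maximal binding signal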
T1 construct: HDAC1 (full length, C-terminal His tag, C-terminal FLAG tag, BPS Bioscience, cat. #: 50051); FLAG (C); purchased BPS Bioscience 50051
Description: (§1) Experiments were performed twice, data were obtained with Array Analyze software (Active Motif), and data analysis and representation were performed with the GraphPad Prism 7 software. Outliers were curated manually and data were fitted to nonlinear regression [log(agonist) vs. response—variable slope (four parameters)]. […] Non-sigmoidal curves were denoted as not determined (N.D.) The pEC50 values were determined as the concentration of HDAC enzyme required for half-maximal binding signal.

HDAC3/NCoR2 [2] = target: T2, HDAC3/NCoR2 (Homo sapiens, UniProt O15379); experiment: Recombinant HDAC µSPOT microarray binding assay;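 further: peptide spots on cellulose slides incubated with rising HDAC enzyme concentrations, imaged together, four-parameter logistic fit, EC50 is enzyme concentration giving half-maximal binding signal, two experiments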
T2 construct: HDAC3/NCoR2 (full length, C-terminal His tag, NCoR2 N-terminal GST tag); purchased BPS Bioscience 50003
Description: as §1

HDAC8 = target: T3, HDAC8 (Homo sapiens, UniProt Q9BY41); experiment: Recombinant HDAC µSPOT microarray binding assay;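 further: peptide µSPOT slides incubated with varying HDAC enzyme concentrations, imaged signal intensity fitted by four-parameter variable-slope regression, EC50 is enzyme concentration giving half-maximal binding, pH 7.4 HEPES buffer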
T3 construct: HDAC8 (full length, C-terminal His tag, BPS Bioscience, cat. #: 50008); purchased BPS Bioscience 50008
T3 sequence (Q9BY41 1-377): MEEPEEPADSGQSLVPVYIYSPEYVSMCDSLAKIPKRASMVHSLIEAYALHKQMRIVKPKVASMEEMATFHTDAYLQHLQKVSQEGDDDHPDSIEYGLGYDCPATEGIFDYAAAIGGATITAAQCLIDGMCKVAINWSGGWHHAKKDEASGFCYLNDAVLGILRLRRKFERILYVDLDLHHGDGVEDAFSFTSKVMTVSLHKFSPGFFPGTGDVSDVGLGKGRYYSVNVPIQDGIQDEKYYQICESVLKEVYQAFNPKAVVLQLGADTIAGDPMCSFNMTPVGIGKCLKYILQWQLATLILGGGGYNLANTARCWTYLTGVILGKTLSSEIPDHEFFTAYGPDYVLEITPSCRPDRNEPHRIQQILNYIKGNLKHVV
Description: as §1

HDAC1 [3] = target: T1, HDAC1; experiment: HDAC inhibition assay (fluorogenic, Ac-Leu-Gly-Lys(Ac)-AMC); type: biochemical; details: for HDAC1 dose-response data (relative enzyme activity), Fig. 6 + S. Fig. 10: duplicate columns
HDAC2 = target: T4, HDAC2 (Homo sapiens, UniProt Q92769); experiment: as above; type: biochemical; details: for HDAC2 dose-response data (relative enzyme activity), Fig. 6 + S. Fig. 10: duplicate columns
T4 construct: HDAC2 (full length, C-terminal His tag, BPS Bioscience, cat. #: 50002); purchased BPS Bioscience 50002

HDAC3/NCoR2 [4] = target: T2, HDAC3/NCoR2; experiment: as above; type: biochemical; details: for HDAC3 dose-response data (relative enzyme activity), Fig. 6 + S. Fig. 10: duplicate columns
HDAC6 = target: T5, HDAC6 (Homo sapiens, UniProt Q9UBN7); experiment: as above; type: biochemical; details: HDAC6, replicates
T5 construct: HDAC6 (full length, BPS Bioscience, cat. #: 50056); purchased BPS Bioscience 50056
T5 sequence (Q9UBN7 1-1215): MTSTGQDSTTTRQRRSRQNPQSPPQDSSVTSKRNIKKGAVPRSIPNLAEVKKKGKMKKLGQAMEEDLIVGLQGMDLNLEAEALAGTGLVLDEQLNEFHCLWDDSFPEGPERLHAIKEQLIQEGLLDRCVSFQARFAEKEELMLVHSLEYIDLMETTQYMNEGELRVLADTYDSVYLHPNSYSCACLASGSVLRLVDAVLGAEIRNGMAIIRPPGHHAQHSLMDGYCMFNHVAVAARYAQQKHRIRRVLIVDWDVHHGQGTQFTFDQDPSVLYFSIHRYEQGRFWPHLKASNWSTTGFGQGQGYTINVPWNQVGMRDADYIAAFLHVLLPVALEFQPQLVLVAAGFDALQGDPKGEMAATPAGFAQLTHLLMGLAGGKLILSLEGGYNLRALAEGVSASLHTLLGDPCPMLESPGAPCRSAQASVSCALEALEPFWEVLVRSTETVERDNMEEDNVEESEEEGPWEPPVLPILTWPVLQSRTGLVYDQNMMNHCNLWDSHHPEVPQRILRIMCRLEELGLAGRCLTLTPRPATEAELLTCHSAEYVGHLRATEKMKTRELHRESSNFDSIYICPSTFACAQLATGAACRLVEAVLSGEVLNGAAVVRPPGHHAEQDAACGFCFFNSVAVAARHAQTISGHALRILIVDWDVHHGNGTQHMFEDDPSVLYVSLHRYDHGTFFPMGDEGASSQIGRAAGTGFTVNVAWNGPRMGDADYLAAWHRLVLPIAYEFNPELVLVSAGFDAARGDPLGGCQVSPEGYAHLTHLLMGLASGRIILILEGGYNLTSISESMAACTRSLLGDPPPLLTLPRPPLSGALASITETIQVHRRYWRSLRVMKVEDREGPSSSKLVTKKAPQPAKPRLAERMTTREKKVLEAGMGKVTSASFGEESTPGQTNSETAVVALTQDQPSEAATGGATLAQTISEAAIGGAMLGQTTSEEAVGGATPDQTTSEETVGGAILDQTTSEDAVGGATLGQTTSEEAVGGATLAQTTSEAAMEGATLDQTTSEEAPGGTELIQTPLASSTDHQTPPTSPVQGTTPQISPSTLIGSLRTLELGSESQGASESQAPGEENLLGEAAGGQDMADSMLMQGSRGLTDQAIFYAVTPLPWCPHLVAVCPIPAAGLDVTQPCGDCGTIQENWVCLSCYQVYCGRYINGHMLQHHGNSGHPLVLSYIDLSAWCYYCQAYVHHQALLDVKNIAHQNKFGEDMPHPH

HDAC4 = target: T6, HDAC4 (Homo sapiens, UniProt P56524); experiment: HDAC inhibition assay (fluorogenic, Ac-Leu-Gly-Lys(Tfa)-AMC); type: biochemical; details: 2 internal replicates
T6 construct: purchased BPS Bioscience 50004

[5] = log[inhibitor(M)] -10,5850266520292*, whole line marked with asterisks

T2 sequence (O15379 whole entry): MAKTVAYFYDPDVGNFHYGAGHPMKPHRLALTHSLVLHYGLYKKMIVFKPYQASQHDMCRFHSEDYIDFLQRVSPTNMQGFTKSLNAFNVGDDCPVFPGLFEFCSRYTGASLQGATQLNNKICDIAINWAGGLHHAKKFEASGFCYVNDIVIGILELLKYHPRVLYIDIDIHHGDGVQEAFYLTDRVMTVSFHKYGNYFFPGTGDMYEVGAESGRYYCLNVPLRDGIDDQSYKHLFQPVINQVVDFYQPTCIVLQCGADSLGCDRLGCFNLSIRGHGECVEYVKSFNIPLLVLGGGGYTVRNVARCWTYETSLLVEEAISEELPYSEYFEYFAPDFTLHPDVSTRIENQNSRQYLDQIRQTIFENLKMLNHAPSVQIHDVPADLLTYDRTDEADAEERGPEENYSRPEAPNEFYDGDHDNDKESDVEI
T2 sequence (Q9Y618 389-480 partner limits assumed): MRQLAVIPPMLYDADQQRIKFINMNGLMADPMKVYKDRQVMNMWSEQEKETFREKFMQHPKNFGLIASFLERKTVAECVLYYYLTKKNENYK
T1 sequence (Q13547 whole entry): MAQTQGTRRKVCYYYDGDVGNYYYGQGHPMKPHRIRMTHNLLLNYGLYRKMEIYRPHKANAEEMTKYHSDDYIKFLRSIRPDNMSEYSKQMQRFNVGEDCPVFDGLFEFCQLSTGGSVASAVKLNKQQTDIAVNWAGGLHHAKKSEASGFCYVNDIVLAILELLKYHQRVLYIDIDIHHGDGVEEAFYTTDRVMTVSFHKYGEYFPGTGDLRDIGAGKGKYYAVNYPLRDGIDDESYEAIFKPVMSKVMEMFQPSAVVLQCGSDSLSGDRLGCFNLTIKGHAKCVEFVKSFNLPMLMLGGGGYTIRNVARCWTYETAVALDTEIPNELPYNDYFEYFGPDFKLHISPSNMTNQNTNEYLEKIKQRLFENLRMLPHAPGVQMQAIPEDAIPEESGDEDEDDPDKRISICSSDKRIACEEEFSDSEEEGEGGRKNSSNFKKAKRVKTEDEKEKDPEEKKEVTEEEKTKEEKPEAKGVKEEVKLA
T4 sequence (Q92769 whole entry): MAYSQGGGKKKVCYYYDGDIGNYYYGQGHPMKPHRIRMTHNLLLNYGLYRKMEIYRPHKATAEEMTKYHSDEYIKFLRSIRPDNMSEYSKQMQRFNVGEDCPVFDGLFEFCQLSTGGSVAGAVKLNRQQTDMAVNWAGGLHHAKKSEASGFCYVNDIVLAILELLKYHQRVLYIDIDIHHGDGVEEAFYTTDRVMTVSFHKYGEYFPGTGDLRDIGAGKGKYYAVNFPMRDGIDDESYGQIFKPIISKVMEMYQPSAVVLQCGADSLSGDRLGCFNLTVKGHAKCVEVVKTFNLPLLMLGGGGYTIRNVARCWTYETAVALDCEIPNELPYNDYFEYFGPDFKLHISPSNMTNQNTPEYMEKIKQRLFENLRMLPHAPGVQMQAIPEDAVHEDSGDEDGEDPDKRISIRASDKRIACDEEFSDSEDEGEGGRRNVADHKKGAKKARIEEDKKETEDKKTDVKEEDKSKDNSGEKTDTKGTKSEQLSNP
T6 sequence (P56524 627-1084): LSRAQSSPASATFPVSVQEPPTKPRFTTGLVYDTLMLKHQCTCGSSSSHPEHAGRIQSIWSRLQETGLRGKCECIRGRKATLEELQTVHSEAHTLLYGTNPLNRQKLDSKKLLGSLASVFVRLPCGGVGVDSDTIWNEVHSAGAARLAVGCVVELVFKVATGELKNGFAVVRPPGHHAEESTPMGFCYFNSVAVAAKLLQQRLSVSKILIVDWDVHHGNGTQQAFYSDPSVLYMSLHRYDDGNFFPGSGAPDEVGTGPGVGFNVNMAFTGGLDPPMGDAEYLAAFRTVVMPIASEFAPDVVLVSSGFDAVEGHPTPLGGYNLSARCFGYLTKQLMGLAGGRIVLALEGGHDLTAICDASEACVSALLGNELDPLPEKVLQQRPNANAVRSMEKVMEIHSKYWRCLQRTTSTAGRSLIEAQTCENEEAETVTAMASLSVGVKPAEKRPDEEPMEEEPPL

CC(=O)N[C@@H](C)C(=O)N1CCC[C@H]1C(=O)N[C@@H](C)C(=O)N1CCC[C@H]1C(=O)N[C@@H](CCCCN)C(=O)N[C@@H](CCCCCC(=O)NO)C(=O)NCC(=O)N[C@@H](CO)C(=O)N[C@@H](CCCCN)C(=O)N[C@@H](CCCCN)C(=O)N[C@@H](C)C(=O)N[C@H](C(=O)N[C@H](C(=O)N[C@@H](CCCCN)C(=O)N[C@@H](C)C(=O)N[C@@H](CCC(N)=O)C(=O)N[C@@H](Cc1c[nH]c2ccccc12)C(N)=O)[C@@H](C)O)C(C)C [10a] (Ac-APAPK[Asu](NHOH)GSKKAVTKAQW-NH2)
EC50 (HDAC1 [1]): 8.71 nM | EC50 (HDAC3/NCoR2 [2]): 3.09 nM | EC50 (HDAC8): > 25.1 nM | Ki (HDAC1 [3]): 111 ± 2 nM | HDAC1 dose-response data (relative enzyme activity), Fig. 6 + S. Fig. 10 (HDAC1 [3]; log[inhibitor(M)] -4.30103): 5.334 and 4.212 | HDAC1 dose-response data (relative enzyme activity), Fig. 6 + S. Fig. 10 (HDAC1 [3]; log[inhibitor(M)] -5.69897): 29.499 and 30.3493 | HDAC1 dose-response data (relative enzyme activity), Fig. 6 + S. Fig. 10 (HDAC1 [3]; log[inhibitor(M)] -6.39794): 63.3422 and 57.5642 | HDAC1 dose-response data (relative enzyme activity), Fig. 6 + S. Fig. 10 (HDAC1 [3]; log[inhibitor(M)] -7.09691): 92.4396 and 86.4688 | HDAC1 dose-response data (relative enzyme activity), Fig. 6 + S. Fig. 10 (HDAC1 [3]; log[inhibitor(M)] -7.79588): 116.265 and 84.5085 | HDAC1 dose-response data (relative enzyme activity), Fig. 6 + S. Fig. 10 (HDAC1 [3]; log[inhibitor(M)] -8.49485): 113.205 and 105.123 | HDAC1 dose-response data (relative enzyme activity), Fig. 6 + S. Fig. 10 (HDAC1 [3]; log[inhibitor(M)] -9.19382): 116.621 and 108.226 | HDAC1 dose-response data (relative enzyme activity), Fig. 6 + S. Fig. 10 (HDAC1 [3]; log[inhibitor(M)] -9.89279): 112.611 and 105.771 | HDAC1 dose-response data (relative enzyme activity), Fig. 6 + S. Fig. 10 (HDAC1 [3]; [5]): 102,7345* and 100,1809* | HDAC2 dose-response data (relative enzyme activity), Fig. 6 + S. Fig. 10 (HDAC2; log[inhibitor(M)] -5): 21.842 and 17.4503 | HDAC2 dose-response data (relative enzyme activity), Fig. 6 + S. Fig. 10 (HDAC2; log[inhibitor(M)] -5.69897): 44.183 and 59.677 | HDAC2 dose-response data (relative enzyme activity), Fig. 6 + S. Fig. 10 (HDAC2; log[inhibitor(M)] -7.79588): 120.227 and 109.311 | HDAC2 dose-response data (relative enzyme activity), Fig. 6 + S. Fig. 10 (HDAC2; [5]): 109,81* and 112,306* | Ki (HDAC2; resynthesized peptide in solution, Cheng-Prusoff, n = 2): 239 ± 4 nM | Ki (HDAC3/NCoR2 [4]): 51.2 ± 0.9 nM | HDAC3 dose-response data (relative enzyme activity), Fig. 6 + S. Fig. 10 (HDAC3/NCoR2 [4]; log[inhibitor(M)] -4.30103): 2.766 and 1.97 | HDAC3 dose-response data (relative enzyme activity), Fig. 6 + S. Fig. 10 (HDAC3/NCoR2 [4]; log[inhibitor(M)] -5): 10.2945 and 7.913 | HDAC3 dose-response data (relative enzyme activity), Fig. 6 + S. Fig. 10 (HDAC3/NCoR2 [4]; log[inhibitor(M)] -5.69897): 26.7937 and 20.8193 | HDAC3 dose-response data (relative enzyme activity), Fig. 6 + S. Fig. 10 (HDAC3/NCoR2 [4]; log[inhibitor(M)] -6.39794): 46.8605 and 38.5396 | HDAC3 dose-response data (relative enzyme activity), Fig. 6 + S. Fig. 10 (HDAC3/NCoR2 [4]; log[inhibitor(M)] -7.09691): 73.2021 and 63.7098 | HDAC3 dose-response data (relative enzyme activity), Fig. 6 + S. Fig. 10 (HDAC3/NCoR2 [4]; log[inhibitor(M)] -7.79588): 98.3444 and 77.95 | HDAC3 dose-response data (relative enzyme activity), Fig. 6 + S. Fig. 10 (HDAC3/NCoR2 [4]; log[inhibitor(M)] -8.49485): 104.594 and 95.6609 | HDAC3 dose-response data (relative enzyme activity), Fig. 6 + S. Fig. 10 (HDAC3/NCoR2 [4]; log[inhibitor(M)] -9.19382): 108.819 and 98.0987 | HDAC3 dose-response data (relative enzyme activity), Fig. 6 + S. Fig. 10 (HDAC3/NCoR2 [4]; log[inhibitor(M)] -9.89279): 107.136 and 105.407 | HDAC3 dose-response data (relative enzyme activity), Fig. 6 + S. Fig. 10 (HDAC3/NCoR2 [4]; [5]): 106,9896* and 85,1199* | residual enzymatic activity relative to control wells (HDAC6; log[inhibitor(M)] -4.30103): 1.4 and 0.93 | residual enzymatic activity relative to control wells (HDAC6; log[inhibitor(M)] -5): 3.09 and 2.23 | residual enzymatic activity relative to control wells (HDAC6; log[inhibitor(M)] -5.69897): 13.76 and 8.98 | residual enzymatic activity relative to control wells (HDAC6; log[inhibitor(M)] -6.39794): 36.89 and 30.05 | residual enzymatic activity relative to control wells (HDAC6; log[inhibitor(M)] -7.09691): 68.83 and 58.89 | residual enzymatic activity relative to control wells (HDAC6; log[inhibitor(M)] -7.79588): 90.1 and 83.16 | residual enzymatic activity relative to control wells (HDAC6; log[inhibitor(M)] -8.49485): 98.1 and 88.82 | residual enzymatic activity relative to control wells (HDAC6; log[inhibitor(M)] -9.19382): 100.25 and 95.78 | residual enzymatic activity relative to control wells (HDAC6; log[inhibitor(M)] -9.89279): 102.47 and 98.2 | residual enzymatic activity relative to control wells (HDAC6; log[inhibitor(M)] -10.585): 99,94* and 98,05* | residual enzymatic activity relative to control wells (HDAC4; inhibitor 5 µM): 95.93 | remaining activity at 5 µM (HDAC4; inhibitor 5 µM, read-out: residual enzymatic activity relative to control wells): 100% | residual enzymatic activity relative to control wells (HDAC4; inhibitor 50 µM): 77.53 | remaining activity at 50 µM (HDAC4; inhibitor 50 µM, read-out: residual enzymatic activity relative to control wells): 80.4%
